Inhibition and IC50 data for seven compounds are collected here from ChEMBL document CHEMBL3769350, “Synthesis and biological evaluation of piperazine group-linked bivalent -carbolines as potential antitumor agents” (Medchemcomm, 2015).

Assay [1] has as its system Chorioallantoic membrane. In words: Antiangiogenic activity in chicken chorioallantoic membrane at 200 uM after 48 hrs by microscopic analysis. The assay is classed as functional. The conditions noted are these: Gallus gallus.
Assay [2] is described as follows: Cytotoxicity against human SKOV3 cells by MTT assay. The assay is classed as functional, cell-based. The conditions noted are these: SK-OV-3. (In general: Formazan colour is commonly taken as a measure of viable cells.)
Assay [3] deals with Chorioallantoic membrane. In words: Antiangiogenic activity in chicken chorioallantoic membrane at 50 to 200 uM after 48 hrs by microscopic analysis. The conditions noted are these: Gallus gallus. The assay is classed as functional.
A further assay concerns HepG2. In words: Cytotoxicity against human HepG2 cells by MTT assay. Type of assay: functional, cell-based.
Another assay has as its system MCF7. Put plainly: Cytotoxicity against human MCF7 cells by MTT assay. Type of assay: functional, cell-based.
Assay [4] in a line: Cytotoxicity against human BGC823 cells by MTT assay. To be noted: BGC-823. The assay is classed as functional, cell-based.
The test system of the next assay is CWR22R. Put plainly: Cytotoxicity against human 22Rv1 cells by MTT assay. Type of assay: functional, cell-based.
Assay [5] is described as follows: Cytotoxicity against mouse LLC cells by MTT assay. The assay is classed as functional, cell-based. The conditions noted are these: Lewis lung carcinoma.
In a further assay the test system is 769-P. Put plainly: Cytotoxicity against human 769-P cells by MTT assay. The assay is classed as functional, cell-based.
The test system of another assay is A-375. In words: Cytotoxicity against human A375 cells by MTT assay. The assay is classed as functional, cell-based.
For the next assay, the system named is HT-29. Put plainly: Cytotoxicity against human HT-29 cells by MTT assay. The assay is classed as functional, cell-based.
The nature of assay [6]: Cytotoxicity against human ECA109 cells by MTT assay. The assay is classed as functional, cell-based. To be noted: ECa-109.

Active and inactive are the calls of the source. The calls are words filed in the database; no cut-off is given here.

`COc1ccc(/C=C\c2cc(OC)c(OC)c(OC)c2)cc1OP(=O)(O)O`: the inhibition result in the assay with Chorioallantoic membrane [1] was “Active”.

As usually defined, the IC50 is the concentration that inhibits the measured activity by half. Read a high IC50 as lower potency. With `Cc1nc(CN2CCN(Cc3cc4c5ccccc5n(CC(C)C)c4c(C)n3)CC2)cc2c3ccccc3n(CC(C)C)c12`, the IC50 worked out at 16 µM in assay [2]; 9.66 µM in the assay with HepG2; 7.16 µM with MCF7; 10.8 µM in [4]; 12.5 µM with CWR22R; 7.68 µM in assay [5]. In addition, the IC50 was found to be 12.7 µM in the assay on 769-P, 13 µM with A-375, 11.3 µM in the assay on HT-29 and 14.3 µM in assay [6]. Moreover, the inhibition entry in the assay with Chorioallantoic membrane [3] is “Active”.

Turning to `c1ccc(Cn2c3ccccc3c3cc(CN4CCN(Cc5cc6c7ccccc7n(Cc7ccccc7)c6cn5)CC4)ncc32)cc1`, the IC50 in assay [2] is 46.5 µM; with HepG2, 65.4 µM; in the assay with MCF7, more than 100 µM; in assay [4], more than 100 µM; in the assay on CWR22R it was more than 100 µM; in assay [5] it was 79.8 µM. The IC50 was more than 100 µM in the assay with 769-P, more than 100 µM with A-375, 36.8 µM in the assay with HT-29 and more than 100 µM in assay [6].

`COc1cc(-c2nc(CN3CCN(Cc4cc5c6ccccc6n(CCCc6ccccc6)c5c(-c5cc(OC)c(OC)c(OC)c5)n4)CC3)cc3c4ccccc4n(CCCc4ccccc4)c23)cc(OC)c1OC`: the IC50 (in [2]; with HepG2; in the assay on MCF7; in assay [4]; in the assay with CWR22R; in [5]) was more than 100 µM in each case. Further, the IC50 (with 769-P; with A-375; with HT-29; in assay [6]) was more than 100 µM throughout.

As to `COc1ccc(-c2nc(CN3CCN(Cc4cc5c6ccccc6n(Cc6ccccc6)c5c(-c5ccc(OC)cc5)n4)CC3)cc3c4ccccc4n(Cc4ccccc4)c23)cc1`, the IC50 in assay [2] was more than 100 µM; with HepG2, more than 100 µM; with MCF7, more than 100 µM; in [4], more than 100 µM; in the assay on CWR22R it was more than 100 µM; in [5], 40.4 µM. The IC50 (with 769-P; in the assay with A-375; in the assay with HT-29; in [6]) was more than 100 µM throughout.

As to `Fc1ccc(Cn2c3ccccc3c3cc(CN4CCN(Cc5cc6c7ccccc7n(Cc7ccc(F)cc7)c6cn5)CC4)ncc32)cc1`, the IC50 in assay [2] came to 8.43 µM; with HepG2 it was 76.3 µM; with MCF7 it was 72.8 µM; in [4], 85.6 µM; with CWR22R, 60.6 µM; in assay [5] it was 15.9 µM. Further, the IC50 in the assay with 769-P stood at 29 µM; in the assay on A-375, 46 µM; with HT-29 it was 18.3 µM; in [6], 24.7 µM.

As to `Cc1nc(CN2CCN(Cc3cc4c5ccccc5n(C)c4c(C)n3)CC2)cc2c3ccccc3n(C)c12`, the IC50 in [2] was 31 µM; in the assay with HepG2, more than 100 µM; in the assay on MCF7, more than 100 µM; in assay [4], 78.5 µM; in the assay with CWR22R, 86.3 µM; in [5], 61.8 µM. For the same compound, the IC50 (in the assay with 769-P; in the assay on A-375; with HT-29; in assay [6]) was more than 100 µM throughout.
